Test results: US20250333420A1, “FUSED BICYCLIC PYRIMIDONES AS WRN INHIBITORS” (INCYTE CORPORATION, priority 2023, published 2025)
pIC50: −log10 of the molar value. Counter-ions that a name gives are not always drawn.

What was measured:
WRN [1] = molecular target: T1, WRN (Homo sapiens, UniProt Q14191); test: WRN ATPase activity assay (ADP-Glo); assay type: biochemical; details: 1-hr pre-incubation with enzyme; 100 μM ATP, 25 nM forked dsDNA, 1 nM WRN; geometric mean of at least 2 replicates
T1 construct: A His-tagged construct of WRN (AA S2-S1235) was produced and used for the ATPase assay; His tag; made in house; host or cells: Sf9 insect cells (baculovirus, pFastBac1)
T1 sequence (Q14191 2-1235): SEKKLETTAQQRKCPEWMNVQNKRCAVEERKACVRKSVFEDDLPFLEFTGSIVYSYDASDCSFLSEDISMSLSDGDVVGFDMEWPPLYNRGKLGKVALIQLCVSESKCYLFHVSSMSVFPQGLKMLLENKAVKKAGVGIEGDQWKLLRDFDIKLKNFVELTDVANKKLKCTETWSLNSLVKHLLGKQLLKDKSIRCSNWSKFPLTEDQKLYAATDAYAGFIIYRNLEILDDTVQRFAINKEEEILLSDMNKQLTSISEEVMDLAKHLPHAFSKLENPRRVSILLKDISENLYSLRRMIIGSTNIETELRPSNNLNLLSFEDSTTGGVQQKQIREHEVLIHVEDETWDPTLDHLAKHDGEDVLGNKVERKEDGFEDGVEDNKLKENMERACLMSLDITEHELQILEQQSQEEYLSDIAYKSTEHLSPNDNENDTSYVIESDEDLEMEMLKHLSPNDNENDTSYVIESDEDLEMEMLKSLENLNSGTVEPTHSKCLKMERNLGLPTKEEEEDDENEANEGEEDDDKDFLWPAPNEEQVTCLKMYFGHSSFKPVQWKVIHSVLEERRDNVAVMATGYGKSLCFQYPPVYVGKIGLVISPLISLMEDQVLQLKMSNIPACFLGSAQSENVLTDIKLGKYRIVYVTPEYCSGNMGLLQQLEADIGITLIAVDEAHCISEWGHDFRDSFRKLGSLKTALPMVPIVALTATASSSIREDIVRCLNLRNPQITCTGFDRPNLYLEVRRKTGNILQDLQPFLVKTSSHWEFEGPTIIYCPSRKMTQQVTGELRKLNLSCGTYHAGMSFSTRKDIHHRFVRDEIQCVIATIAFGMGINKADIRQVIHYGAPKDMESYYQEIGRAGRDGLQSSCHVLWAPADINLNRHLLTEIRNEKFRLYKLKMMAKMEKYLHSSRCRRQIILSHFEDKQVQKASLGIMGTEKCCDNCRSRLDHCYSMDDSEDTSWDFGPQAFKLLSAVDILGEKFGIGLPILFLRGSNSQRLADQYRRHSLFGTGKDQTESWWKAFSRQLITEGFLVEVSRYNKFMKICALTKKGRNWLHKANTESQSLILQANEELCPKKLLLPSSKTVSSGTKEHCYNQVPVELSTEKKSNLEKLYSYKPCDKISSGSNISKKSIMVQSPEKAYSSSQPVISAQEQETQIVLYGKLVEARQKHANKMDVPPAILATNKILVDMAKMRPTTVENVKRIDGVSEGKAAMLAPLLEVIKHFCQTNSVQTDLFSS
Method: Compounds of the Examples were tested for WRN ATPase activity. WRN ATPase activity catalyzes ATP hydrolysis to produce ADP and phosphate. DNA encoding the target protein, 6×HIS-TEV-WRN-517-945, was produced, cloned and transfected as detailed in Example D. The amount of ADP produced was measured using ADP-Glo™ Kinase Assay kit from Promega Corporation in a Greiner white regular volume 384 wells assay plate (Greiner #781075). Data was normalized to a standard curve generated using various ADP concentrations and the corresponding luminescent signal intensities at each concentration. The assay conditions were optimized for enzyme concentration (WRN), substrate concentrations (ATP & dsDNA), and the linearity of the ATPase reaction, in the following assay buffer: 50 mM Tris-HCl, pH-7.5, 2 mM MgCl2, 50 mM NaCl, 1 mM EGTA, 0.01% P-20, 0.05% BSA, and 2 mM DTT prepared with nuclease free water.
A serial dilution (1:3 scheme) of the compounds were prepared in neat DMSO, with 100 nL of the compounds dispensed in the 384 wells assay plate. An 1-hr pre-incubation of the compounds with enzyme was included. A His-tagged construct of WRN (AA S2-S1235) was produced and used for the ATPase assay. Maximum inhibition control wells were set up with the addition of only assay buffer, and no inhibition control wells were set up with neat DMSO without test compounds. The reaction was initiated by addition of 5 μL substrate mix (200 μM ultrapure ATP, and 50 nM dsDNA prepared in assay buffer) and incubated at 25° C. for 35 min. A forked dsDNA oligomer substrate was prepared by annealing equal amounts of oligo GPat-1 ([BHQ2][…]) and oligo GPat-2 ([…][TAM]) and was used as dsDNA substrate for WRN ATPase assay. A typical ATPase reaction consists of 25 nM forked dsDNA, 100 μM ATP, and 1 nM WRN prepared in assay buffer. The WRN ATPase reaction was stopped by the addition of 5 μL of ADP-Glo Reagent from ADP-Glo™ Kinase Assay kit and incubated for 40 min to deplete the unreacted ATP. Afterwards, 5 μL of Kinase Detection Reagent from the ADP-Glo™ Kinase Assay kit was added and incubated for 1 hr for the development of luminescence signal.
Luminesce signals were measured on BMG PHERAstar FSX using luminescence protocol. Data analysis was carried out using Genedata software following % of control normalization. Fitting parameters include dose response IC50, Hill slope (n), maximum inhibition (S∞), and minimum inhibition (S0). The reported IC50 values for compounds in this invention are the geometric means of at least 2 independent replicates.

WRN [2] = molecular target: T1, WRN; test: WRN helicase activity assay (fluorescence DNA unwinding); assay type: biochemical; details: 1-hr pre-incubation with enzyme; 100 μM ATP, 25 nM forked dsDNA, 1 nM WRN; geometric mean of at least 2 replicates
Method: Compounds of the examples were tested for WRN helicase activity. DNA encoding the target protein, 6×HIS-TEV-WRN-517-945, was produced, cloned and transfected as detailed in Example D. To determine the inhibitory properties of the compounds, a 384 wells plate-based Helicase assay was set up to measure the extent of DNA unwinding (Helicase) activity of WRN. The WRN Helicase assay was designed to measure increase in fluorescence signal using a fluorescence based, donor-quencher paired forked dsDNA oligomer substrate (custom synthesis from Sigma-Aldrich) prepared by annealing equal amounts of oligo GPat-1 ([BHQ2][…]) and oligo GPat-2 ([…][TAM]). Continuous measurement of fluorescent signal was used to optimize the buffer conditions, concentration of enzyme (WRN), concentration of substrates (ATP & dsDNA), and the linearity of the Helicase reaction. All solutions were prepared in the following assay buffer: 50 mM Tris-HCl, pH-7.5, 2 mM MgCl2, 50 mM NaCl, 1 mM EGTA, 0.01% P-20, 0.05% BSA, and 2 mM DTT prepared with nuclease free water.
A serial dilution (1:3 scheme) of the compounds was prepared in neat DMSO and 100 nL of the compounds was dispensed in the Greiner black low volume (Greiner #784076) 384 wells assay plate. An 1-hr pre-incubation of the compounds with enzyme was included. A His-tagged construct of WRN (AA S2-S1235) was produced and used for the ATPase assay. Maximum inhibition control wells were set up with the addition of only assay buffer, and no inhibition control wells were set up with neat DMSO without test compounds. The reaction was initiated by addition of 5 μL substrate mix (200 μM ultrapure ATP, and 50 nM dsDNA prepared in assay buffer) and incubated at 25° C. for 35 min. A typical Helicase reaction consists of 25 nM forked dsDNA, 100 μM ATP, and 1 nM WRN prepared in assay buffer. The WRN Helicase reaction was quenched by the addition of 5 μL ‘STOP’ solution containing 100 mM EDTA (final EDTA concentration 33.33 mM) prepared in assay buffer. The plates were read on BMG PHERAstar FSX using 540/590 module to measure an increase of fluorescence. Data analysis was carried out using the Genedata software following % of control normalization. Fitting parameters include dose response IC50, Hill slope (n), maximum inhibition (S∞), and minimum inhibition (S0). The reported IC50 values for compounds in this invention are the geometric means of at least 2 independent replicates.

| SMILES | pIC50 (WRN [1]) | pIC50 (WRN [2]) |
| --- | --- | --- |
| C=CC(=O)Nc1ccccc1-n1c(CC)nc2c(cnn2CC(=O)Nc2ccc(C(F)(F)F)cc2)c1=O [Example 1, N-(2-(6-Ethyl-4-oxo-1-(2-oxo-2-((4-(trifluoromethyl)phenyl)amino)ethyl)-1,4-dihydro-5H-pyrazolo[3,4-d]pyrimidin-5-yl)phenyl)acrylamide] | 5.30 to 6.00 | 5.30 to 6.00 |
| C=CS(=O)(=O)Nc1ccccc1-n1c(CC)nc2c(cnn2CC(=O)Nc2ccc(C(F)(F)F)cc2)c1=O [Example 2, 2-(6-Ethyl-4-oxo-5-(2-(vinylsulfonamido)phenyl)-4,5-dihydro-1H-pyrazolo[3,4-d]pyrimidin-1-yl)-N-(4-(trifluoromethyl)phenyl)acetamide] | > 7.00 | > 7.00 |
| C=CC(=O)Nc1ccccc1-n1c(CC)nc2c(c(C)c(C)n2CC(=O)Nc2ccc(C(F)(F)F)cc2)c1=O [Example 3, N-(2-(2-Ethyl-5,6-dimethyl-4-oxo-7-(2-oxo-2-((4-(trifluoromethyl)phenyl)amino)ethyl)-4,7-dihydro-3H-pyrrolo[2,3-d]pyrimidin-3-yl)phenyl)acrylamide] | > 7.00 | > 7.00 |
| C=CC(=O)Nc1ccccc1-n1c(CC)nc2c(c(C)c(C)n2CC(=O)Nc2ccc(C(F)(F)F)cc2Cl)c1=O [Example 4, N-(2-(7-(2-((2-Chloro-4-(trifluoromethyl)phenyl)amino)-2-oxoethyl)-2-ethyl-5,6-dimethyl-4-oxo-4,7-dihydro-3H-pyrrolo[2,3-d]pyrimidin-3-yl)phenyl)acrylamide] | > 7.00 | > 7.00 |
| C=CC(=O)Nc1ccccc1-n1c(CC)nc2c(c(C)c(C)n2CC(=O)Nc2ccc(F)cc2)c1=O [Example 5, N-(2-(2-Ethyl-7-(2-((4-fluorophenyl)amino)-2-oxoethyl)-5,6-dimethyl-4-oxo-4,7-dihydro-3H-pyrrolo[2,3-d]pyrimidin-3-yl)phenyl)acrylamide] | > 7.00 | > 7.00 |
| C=CC(=O)Nc1cc(C(=O)NCC)ccc1-n1c(CC)nc2c(c(C)c(C)n2CC(=O)Nc2ccc(C(F)(F)F)cc2)c1=O [Example 6, 3-Acrylamido-N-ethyl-4-(2-ethyl-5,6-dimethyl-4-oxo-7-(2-oxo-2-((4-(trifluoromethyl)phenyl)amino)ethyl)-4,7-dihydro-3H-pyrrolo[2,3-d]pyrimidin-3-yl)benzamide, trifluoroacetate salt] | > 7.00 | > 7.00 |
| C=CC(=O)Nc1cc(C(=O)NCC)ccc1-n1c(CC)nc2c(c(C)c(C)n2CC(=O)Nc2ccc(F)cc2)c1=O [Example 7, 3-Acrylamido-N-ethyl-4-(2-ethyl-7-(2-((4-fluorophenyl)amino)-2-oxoethyl)-5,6-dimethyl-4-oxo-4,7-dihydro-3H-pyrrolo[2,3-d]pyrimidin-3-yl)benzamide, trifluoroacetate salt] | > 7.00 | > 7.00 |
